Data reported in US20060069132A1, “Azolecarboxamide herbicides” (priority 2004, published 2006).

Tests used:
barnyardgrass [1] = experiment: Test B pre-/postemergence herbicide test; type: in vivo, Echinochloa crus-galli; conditions: for Barnyardgrass plant response rating: Postemergence, scale 0 (no effect) to 100 (complete control)
Outline: (§1)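 Pre: seeds sown, then sprayed. Post: 1–4-leaf plants (2–18 cm) sprayed at the same time. Paddy: flooded, treated at 2-leaf stage. Formulation: non-phytotoxic solvent with surfactant. Greenhouse 13–15 days; visual 0–100 score relative to controls.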

Surinam grass = experiment: Test B pre-/postemergence herbicide test; type: in vivo, Urochloa decumbens
Outline: (§2)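 Flooded paddy rice and barnyardgrass were treated at the 2-leaf stage; upland plantings received compound either on sown seed or on 1- to 4-leaf seedlings. All were kept 13–15 days in a greenhouse and scored visually, 0–100, relative to untreated plants.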

cocklebur = experiment: Test B pre-/postemergence herbicide test; type: in vivo, Xanthium strumarium
Outline: as §1

corn = experiment: Test B pre-/postemergence herbicide test; type: in vivo, Zea mays
Outline: as §2

large crabgrass = experiment: Test B pre-/postemergence herbicide test; type: in vivo, Digitaria sanguinalis
Outline: as §2

giant foxtail = experiment: Test B pre-/postemergence herbicide test; type: in vivo, Setaria faberi
Outline: as §2

lambsquarters = experiment: Test B pre-/postemergence herbicide test; type: in vivo, Chenopodium album
Outline: as §2

morningglory = experiment: Test B pre-/postemergence herbicide test; type: in vivo, Ipomoea coccinea
Outline: as §1

pigweed = experiment: Test B pre-/postemergence herbicide test; type: in vivo, Amaranthus retroflexus
Outline: as §2

velvetleaf = experiment: Test B pre-/postemergence herbicide test; type: in vivo, Abutilon theophrasti
Outline: as §2

blackgrass = experiment: Test B postemergence herbicide test; type: in vivo, Alopecurus myosuroides
Outline: (§3)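 Read-out: visual comparison with controls, scored 0 to 100, where 100 means complete control and 0 no effect. Formulated chemicals were applied postemergence to plants 2–18 cm tall (1- to 4-leaf), or to flooded-paddy plants at the 2-leaf stage, then held 13 to 15 days under glass.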

wheat = experiment: Test B postemergence herbicide test; type: in vivo, Triticum aestivum; set-up: key to Wheat plant response rating: 0 = no effect, 100 = complete control
Outline: (§4)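 Each value is a visual 0–100 response rating taken against controls 13 to 15 days after treatment in the greenhouse. Plants received formulated chemical postemergence at the 1- to 4-leaf stage or, in flooded paddy, at the 2-leaf stage.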

wild oat = experiment: Test B postemergence herbicide test; type: in vivo, Avena fatua
Outline: as §4

rice = experiment: Test B flooded paddy test; type: in vivo, Oryza sativa; conditions: 1000 g ai/ha, scale 0 to 100 (0 no effect, 100 complete control)
Outline: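 After treating 2-leaf paddy plants or 2–18 cm postemergence plants (1 to 4 leaves) with formulated chemical, researchers kept them in a greenhouse for 13–15 days. Effects were judged visually versus controls: 0 indicates none, 100 total control.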

[2] = test system: small flower umbrella sedge; experiment: Test B flooded paddy test; type: in vivo, Cyperus difformis; conditions: 1000 g ai/ha, scale 0 to 100 (0 no effect, 100 complete control)
Outline: as §3

ducksalad = experiment: Test B flooded paddy test; type: in vivo, Heteranthera limosa; conditions: 1000 g ai/ha, scale 0 to 100 (0 no effect, 100 complete control)
Outline: as §3

barnyardgrass [3] = experiment: Test B flooded paddy test; type: in vivo, Echinochloa crus-galli; conditions: 1000 g ai/ha, scale 0 to 100 (0 no effect, 100 complete control)
Outline: as §3

[4] = 125 g ai/ha, 0 is no effect, 100 is complete control, preemergence
[5] = Postemergence, 500 g ai/ha, scale 0 (no effect) to 100 (complete control)
[6] = postemergence, 125 g ai/ha, scale 0 to 100

Cc1nn(C(C)(C)C)nc1C(=O)Nc1cncc(C(=O)N(C)C)c1 [Compound 426]
Plant response rating (0 to 100 scale), Barnyardgrass (barnyardgrass [1]; [4]): 10
Barnyardgrass plant response rating (barnyardgrass [1]; 125 g ai/ha): 0
Barnyardgrass plant response rating (barnyardgrass [1]; 500 g ai/ha): 20
Plant response rating (0 to 100 scale), Surinam Grass (Surinam grass; [4]): 10
Surinam Grass plant response rating (Surinam grass; [5]): 20
Surinam Grass plant response rating (Surinam grass; [6]): 10
Plant response rating (0 to 100 scale), Cocklebur (cocklebur; [4]): 0
Cocklebur plant response rating (cocklebur; [5]): 20
Cocklebur plant response rating (cocklebur; [6]): 10
Plant response rating (0 to 100 scale), Corn (corn; [4]): 0
Corn plant response rating (corn; [5]): 10
Corn plant response rating (corn; [6]): 10
Plant response rating (0 to 100 scale), Crabgrass, Large (large crabgrass; [4]): 70
Crabgrass, Large plant response rating (large crabgrass; [5]): 20
Crabgrass, Large plant response rating (large crabgrass; [6]): 10
Plant response rating (0 to 100 scale), Foxtail, Giant (giant foxtail; [4]): 0
Foxtail, Giant plant response rating (giant foxtail; [5]): 30
Foxtail, Giant plant response rating (giant foxtail; [6]): 20
Plant response rating (0 to 100 scale), Lambsquarters (lambsquarters; [4]): 40
Lambsquarters plant response rating (lambsquarters; [5]): 50
Lambsquarters plant response rating (lambsquarters; [6]): 20
Plant response rating (0 to 100 scale), Morningglory (morningglory; [4]): 0
Morningglory plant response rating (morningglory; [5]): 50
Morningglory plant response rating (morningglory; [6]): 20
Plant response rating (0 to 100 scale), Pigweed (pigweed; [4]): 50
Pigweed plant response rating (pigweed; [5]): 50
Pigweed plant response rating (pigweed; [6]): 30
Plant response rating (0 to 100 scale), Velvetleaf (velvetleaf; [4]): 10
Velvetleaf plant response rating (velvetleaf; [5]): 40
Velvetleaf plant response rating (velvetleaf; [6]): 30
Blackgrass plant response rating (blackgrass; [5]): 0
Blackgrass plant response rating (blackgrass; [6]): 0
Wheat plant response rating (wheat; 500 g ai/ha, scale 0 to 100, 0 no effect, 100 complete control, preemergence): 10
Wheat plant response rating (wheat; [5]): 0
Wheat plant response rating (wheat; [6]): 0
Oat, Wild plant response rating (wild oat; [5]): 0
Oat, Wild plant response rating (wild oat; [6]): 0
Rice plant response rating (rice): 0
Sedge, Umbrella plant response rating [2]: 70
Ducksalad plant response rating (ducksalad): 70
Barnyardgrass plant response rating (barnyardgrass [3]): 0
